Test results: patent publication US12338199B2, “Bis-octahydrophenanthrene carboxamides and protein conjugates thereof” (REGENERON PHARMACEUTICALS, INC., priority 2017, dated 2025)
Counter-ions that a name gives are not always drawn.

Tests used:
[1] = molecular target: T1, LXR alpha (Homo sapiens, UniProt Q13133); test: LanthaScreen TR-FRET LXR alpha Coactivator Assay (cell-free binding); conditions: TR-FRET, 12-point curve; read-out: Cell free binding LXRα IC50
T1 construct: LXR alpha or beta LBD-GST; purchased ThermoFisher PV4655
T1 sequence (Q13133 209-447 limits assumed): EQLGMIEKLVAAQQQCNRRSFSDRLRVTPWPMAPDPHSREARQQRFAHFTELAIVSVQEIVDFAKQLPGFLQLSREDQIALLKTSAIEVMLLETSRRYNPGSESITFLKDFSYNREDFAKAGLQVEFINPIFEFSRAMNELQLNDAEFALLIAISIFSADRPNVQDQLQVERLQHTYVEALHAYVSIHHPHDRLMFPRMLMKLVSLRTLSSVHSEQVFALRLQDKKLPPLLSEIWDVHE
Method: (§1) To evaluate the ability of novel LXR agonists to bind to the LXR alpha and beta receptor, a cell-free binding assay was performed using a LanthaScreen TR-FRET LXR alpha Coactivator Assay Kit (ThermoFisher, Cat # PV4655) and LXR beta Coactivator Assay Kit (ThermoFisher, Cat # PV4658). The assay was performed according to the manufacturer's instructions. Briefly, a 3-fold serial dilution of LXR agonists were prepared in 100% DMSO starting at 100 μM (100× of final). Serial dilutions were further diluted 50-fold in nuclear receptor buffer F with 5 mM DTT, and transferred to a 384-well assay plate. Next, Fluorescein-D22, LXR alpha or beta LBD-GST, and Tb anti-GST antibody was sequentially added to 384-well assay plate. The plate was then incubated at rt for 2.5 hours while being protected from light. […] The IC50 values were determined using a four-parameter logistic equation over a 12-point response curve (GraphPad Prism).

[2] = test system: THP1/LXR-Luc cells; test: THP1/LXR-Luc luciferase reporter bioassay; assay type: cell-based; conditions: Homo sapiens, THP-1, 48 hours; for EC50: read-out: Activation of THP1/LXR-Luc cells: EC50; for Emax: relative to maximum activation of free payload 9d, read-out: Activation of THP1/LXR-Luc cells: Fold of activation
Text: The fold activation in the cell-based assays (as described in Example 68, below) was defined based on the maximum activation of the free payload 9d.
(§2) A bioassay was developed to assess the activity of LXR agonists after internalization of an agonist or of a ncADC into cells and binding to LXR, a nuclear receptor, using a commercially available LXR reporter (referred to as LXR-Luc) that contains the firefly luciferase gene under control by minimal CMV promoter and tandem repeats of the LXR transcriptional response element. For this assay, a THP1 cell line, which is a human monocytic leukaemia line, was engineered to express full length human Her2 (expressing amino acids M1 through V1255 of accession number NP_004439.2). The subsequent stable cell line was further transduced with a Cignal LXR Luc Reporter (Qiagen, Cat # CLS-7041L). The resulting stable cell line is referred to herein as THP1/Her2/LXR-Luc. The Her2 cell surface expression on THP1/Her2/LXR-Luc cell line was confirmed by FACS (data not shown).
Additionally, a THP1 cell line was transduced with a Cignal LXR Luc Reporter (Qiagen, Cat # CLS-7041L) without the addition of Her2. The resulting stable cell line is referred to herein as THP1/LXR-Luc. All of the antibodies used in the subsequent bioassays were assessed for their ability to internalize and release a payload on the bioassay cell line used.
(§3) This example assessed the ability of the LXR agonists provided herein, reference compounds, and anti-Her2 antibody-LXR ncADC to activate LXR. The samples were tested in the THP1/LXR-Luc/Her2 bioassay. For the assay, either THP1/LXR-Luc cells or THP1/LXR-Luc/Her2 cells were seeded onto white 96 well plates at 30,000 cells/well in media containing RPMI supplemented with 10% FBS and pencillin/streptomycin (complete media). Subsequently 3-fold serial dilutions of antibody drug conjugates, unconjugated antibodies, or free payloads were added to the cells at final concentration ranging from 100 nM to 0.01 nM. After 48-hour or 72-hour incubation, luciferase activity was determined after the addition of One-Glo™ reagent (Promega, Cat # E6130) to each well of cells. Relative light units (RLUs) were measured on a Victor luminometer (PerkinElmer) and the EC5o values were determined using a four-parameter logistic equation over a 10-point dose response curve (GraphPad Prism) (FIG. 15). The fold activation is calculated based on the maximum activation of the free payload 9d.

[3] = test system: THP1/LXR-Luc/Her2 cells; test: THP1/LXR-Luc/Her2 luciferase reporter bioassay; assay type: cell-based; conditions: Homo sapiens
Text: as §2, §3

[4] = molecular target: T2, LXR beta (Homo sapiens, UniProt P55055); test: LanthaScreen TR-FRET LXR beta Coactivator Assay (cell-free binding); conditions: TR-FRET, 12-point curve; read-out: Cell free binding LXRβ IC50
T2 construct: LXR alpha or beta LBD-GST; purchased ThermoFisher PV4658
T2 sequence (P55055 222-460 limits assumed): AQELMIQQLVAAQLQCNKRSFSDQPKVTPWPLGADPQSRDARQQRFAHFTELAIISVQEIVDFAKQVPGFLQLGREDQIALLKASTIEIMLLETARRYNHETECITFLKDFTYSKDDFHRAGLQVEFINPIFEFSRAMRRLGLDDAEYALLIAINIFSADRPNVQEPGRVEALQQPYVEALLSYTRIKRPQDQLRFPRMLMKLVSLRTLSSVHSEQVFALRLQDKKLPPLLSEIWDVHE
Method: as §1

[5] = test system: THP1/LXR-Luc cells; test: LXR-luciferase reporter bioassay in PMA-differentiated THP1/LXR-Luc cells; assay type: cell-based, human; conditions: for EC50: Homo sapiens, THP-1, 48 h, read-out: EC50; for S/N (signal to noise, ratio of RLU of standard one over RLU of standard eight): luciferase activity
Text: To test the efficacy of anti-MSR1 antibody-LXR conjugates in vitro, a cell-based LXR responsive luciferase reporter assay was developed. To generate the assay cell line, a LXR regulated luciferase reporter gene [Cignal Lenti LXR Reporter (luc) kit (Qiagen, Cat # CLS-001L)] was transduced into THP1 cells, and cells were selected for two weeks in puromycin. The lentivirus expresses the firefly luciferase gene under the control of a minimal CMV promoter and tandem repeats of the LXR transcriptional response element. The resulting cell line is referred to as THP1/LXR-Luc cells.
THP1/LXR-Luc cells were seeded onto 96 well plates at 40,000 cells/well in media containing RPMI supplemented with 10% FBS and pencillin/streptomycin and subsequently differentiated with 200 nM Phorbol Myristate Acetate (PMA) for 3 days. After the 3-day differentiation period, three-fold serial dilutions of antibody drug conjugates, unconjugated antibodies, or free payloads in fresh media were added to the cells at final concentration ranging from 100 nM to 0.01 nM. Media alone served as a blank control. Forty-eight hours later, luciferase activity was determined after the addition of One-Glo™ reagent (Promega, Cat # E6130) to each well. Relative light units (RLUs) were measured on a Victor luminometer (PerkinElmer) and EC50 values were determined using a four-parameter logistic equation over a 10-point dose response curve (GraphPad Prism). The signal to noise (S/N) was determined by calculating the ratio of RLU of standard one over RLU of standard eight for each of the unconjugated anti-MSR1 antibodies or free payloads. “LP #” represents a linker-payload for which the corresponding structures are provided elsewhere herein, and “P #” represents a payload for which the corresponding structures are provided elsewhere herein.

[6] = 48-hour time point, stimulation of THP1/Luc cells
[7] = PMA-differentiated THP1/LXR-Luc cells, 48 hours, luciferase activity (One-Glo), 10-point dose response 100 nM to 0.01 nM
[8] = PMA-differentiated THP1/LXR-Luc cells, 48 hours

C[C@]1(C(=O)NC(=O)[C@@]2(C)CCC[C@]3(C)c4cc(NC(=O)[C@@H](N)CO)ccc4CC[C@@H]23)CCC[C@]2(C)c3cc(O)ccc3CC[C@@H]12 [Compound 9j, (1S,4aS,10aR)-6-((S)-2-Amino-3-hydroxypropanamido)-N-((1S,4aS,10aR)-6-hydroxy-1,4a-dimethyl-1,2,3,4,4a,9,10,10a-octahydrophenanthrene-1-carbonyl)-1,4a-dimethyl-1,2,3,4,4a,9,10,10a-octahydrophenanthrene-1-carboxamide]
IC50 [1]: < 10 nM | EC50 [2]: ≤ 1 nM | Emax [2]: > 75% | EC50 ([3]; THP-1, 48 h, 48-hour time point): 0.39 nM | EC50 ([3]; THP-1, 48 h, 48 hours, unit inferred, values correspond to M): 0.39 nM | EC50 ([3]; THP-1, 72 h, 72-hour time point): 0.47 nM | EC50 ([3]; THP-1, 72 h, 72 hours): 0.47 nM | IC50 [4]: < 10 nM | EC50 [5, 6]: 0.37 to 2.09 nM | EC50 [5, 7]: 0.46 nM | S/N (signal to noise, ratio of RLU of standard one over RLU of standard eight) [5, 8]: 5.7

C[C@]1(C(=O)NC(=O)[C@@]2(C)CCC[C@]3(C)c4cc(NC(=O)[C@@H](N)CCC(=O)O)ccc4CC[C@@H]23)CCC[C@]2(C)c3cc(O)ccc3CC[C@@H]12 [Compound 9o, (4S)-4-Amino-4-{[(4bS,8S,8aR)-8-{[(1S,4aS,10aR)-6-hydroxy-1,4a-dimethyl-1,2,3,4,4a,9,10,10a-octahydrophenanthrene-1-carbonyl]carbamoyl}-4b,8-dimethyl-4b,5,6,7,8,8a,9,10-octahydrophenanthren-3-yl]carbamoyl}butanoic acid; Trifluoroacetic Acid Salt]
IC50 [1]: 10 to 100 nM | EC50 [2]: ≤ 1 nM | Emax [2]: > 75% | IC50 [4]: < 10 nM | EC50 [5, 6]: 0.37 to 2.09 nM | EC50 [5, 7]: 0.37 nM | S/N (signal to noise, ratio of RLU of standard one over RLU of standard eight) [5, 8]: 8.3

C[C@]1(C(=O)NC(=O)[C@@]2(C)CCC[C@]3(C)c4cc(OCCN)ccc4CC[C@@H]23)CCC[C@]2(C)c3cc(O)ccc3CC[C@@H]12 [Compound 9c, (1S,4aS,10aR)-6-(2-Aminoethoxy)-N-((1S,4aS,10aR)-6-hydroxy-1,4a-dimethyl-1,2,3,4,4a,9,10,10a-octahydrophenanthrene-1-carbonyl)-1,4a-dimethyl-1,2,3,4,4a,9,10,10a-octahydrophenanthrene-1-carboxamide]
IC50 [1]: 10 to 100 nM | EC50 [2]: 10 to 100 nM | Emax [2]: > 75% | IC50 [4]: < 10 nM

C[C@]1(C(=O)NC(=O)[C@@]2(C)CCC[C@]3(C)c4cc(NC(=O)[C@@H](N)CCCCN)ccc4CC[C@@H]23)CCC[C@]2(C)c3cc(O)ccc3CC[C@@H]12 [Compound 9l, (1S,4aS,10aR)—N-[(1S,4aS,10aR)-6-Hydroxy-1,4a-dimethyl-1,2,3,4,4a,9,10,10a-octahydrophenanthrene-1-carbonyl]-6-[(2S)-2,6-diaminohexanamido]-1,4a-dimethyl-1,2,3,4,4a,9,10,10a-octahydrophenanthrene-1-carboxamide; Trifluoroacetic Acid Salt]
IC50 [1]: 10 to 100 nM | EC50 [2]: 1 to 10 nM | Emax [2]: > 75% | IC50 [4]: 10 to 100 nM | EC50 [5, 6]: 0.37 to 2.09 nM | EC50 [5, 7]: 2.09 nM | S/N (signal to noise, ratio of RLU of standard one over RLU of standard eight) [5, 8]: 8.9

C[C@]1(C(=O)NC(=O)[C@@]2(C)CCC[C@]3(C)c4cc(NC(=O)CNCC(=O)O)ccc4CC[C@@H]23)CCC[C@]2(C)c3cc(O)ccc3CC[C@@H]12 [Compound 9r, 2-[({[(4bS,8S,8aR)-8-{[(1S,4aS,10aR)-6-Hydroxy-1,4a-dimethyl-1,2,3,4,4a,9,10,10a-octahydrophenanthrene-1-carbonyl]carbamoyl}-4b,8-dimethyl-4b,5,6,7,8,8a,9,10-octahydrophenanthren-3-yl]carbamoyl}methyl)amino]acetic Acid; Trifluoroacetic Acid Salt]
IC50 [1]: < 10 nM | EC50 [2]: 10 to 100 nM | Emax [2]: > 75% | IC50 [4]: < 10 nM

C[C@]1(C(=O)NC(=O)[C@@]2(C)CCC[C@]3(C)c4cc(CN)ccc4CC[C@@H]23)CCC[C@]2(C)c3cc(O)ccc3CC[C@@H]12 [Compound 9p, (1S,4aS,10aR)-6-(Aminomethyl)-N-((1S,4aS,10aR)-6-hydroxy-1,4a-dimethyl-1,2,3,4,4a,9,10,10a-octahydrophenanthrene-1-carbonyl)-1,4a-dimethyl-1,2,3,4,4a,9,10,10a-octahydrophenanthrene-1-carboxamide; Trifluoroacetic Acid Salt]
IC50 [1]: 10 to 100 nM | EC50 [2]: 1 to 10 nM | Emax [2]: > 75% | IC50 [4]: < 10 nM
